Entries after “also recorded” stand apart in the source; their conditions may differ.
Experiments:
[1] = tested on: THP-1 monocyte adhesion to HPAECs; test: Endothelial-monocyte cell adhesion assay; format: cell-based, human; details: 5 μM; hypoxia-reoxygenation and IL-1β; 90 min incubation; vs vehicle
Description: (§1) To assess whether MCT4 inhibition acts cell-autonomously in ECs to suppress pro-inflammatory responses, we performed in vitro experiments in which human primary pulmonary artery endothelial cells (HPAECs) were activated by 18 hours exposure to hypoxia (0.5% O2), followed by reoxygenation for 8 hours in the presence of IL-1β treatment (1 ng/mL) (FIG. 11A). To inhibit MCT4, we first used syrosingopine at concentration of 5 μM, which diminished lactate secretion, as indicated by reduction in extracellular lactate levels (FIG. 20A). […] Consistent responses were observed when we used siRNA against MCT4. […] (FIGS. 11D and E).
Human primary pulmonary artery ECs (HPAECs) were obtained from ATCC and grown on gelatin-coated dishes in Endothelial Cell Basal Medium-2 (Lonza, Catalog #CC-3156) supplemented with EGM-2 SingleQuots Supplements (Lonza, Catalog #CC-4176). MCT4 siRNA was purchased from Qiagen (FlexiTube GeneSolution GS9123 for SLC16A3; Catalog #1027416). AllStars negative control siRNA (Qiagen) was used as control siRNA. HiPerFect transfection reagent (Qiagen, Catalog #301707) was used for siRNA transfection experiments. […]
Endothelial-monocyte cell adhesion assay. […] After 90 minutes, floating cells were removed, and fluorescent imaging was performed with quantification of the adhered monocytes using Fiji image J.

[2] = tested on: human primary pulmonary artery endothelial cells (HPAECs); test: EC adhesion molecule mRNA in HPAECs activated by hypoxia/reoxygenation and IL-1β; format: cell-based; details: 5 μM; hypoxia 0.5% O2 18 h, reoxygenation 8 h with IL-1β 1 ng/mL; vs vehicle
Description: as §1
(§2) DNA and RNA were extracted and used for genomic or real-time PCR analysis, as previously described [Majmundar A J, et al. Hypoxia-Inducible Factors and the Response to Hypoxic Stress. Mol Cell. 2010; 40(2):294-309]. Real-time PCR was run in the QuantStudio 3 Real-Time PCR system (Applied Biosystems) using SYBR green or TaqMan PCR Master Mix. 18S rRNA was used for normalization.
Human primary pulmonary artery ECs (HPAECs) were obtained from ATCC and grown on gelatin-coated dishes in Endothelial Cell Basal Medium-2 (Lonza, Catalog #CC-3156) supplemented with EGM-2 SingleQuots Supplements (Lonza, Catalog #CC-4176). MCT4 siRNA was purchased from Qiagen (FlexiTube GeneSolution GS9123 for SLC16A3; Catalog #1027416). […]

[3] = tested on: wild type (WT) C57BL/6 mice, post-ischemic (IR) kidney; test: Unilateral ischemia reperfusion injury (uIRI) model of AKI, post-ischemic treatment, wild type mice; format: in vivo, mouse; details: for reduction in fibrosis assessed by Picro Sirius red staining / perfusion of IR kidney (visual): 7.5 mg/kg IP on alternate days from day 2
Description: Wild type (WT) C57BL/6 mice (7 week old) were procured by The Jackson Laboratory and acclimatized for 1 week at standard conditions (23° C.-25° C.; 40-60% humidity with standard diet). Post acclimatization animals were subjected to unilateral ischemia reperfusion (uIRI) model of acute kidney injury (AKI) in mice as described previously. [Rajendran, G et al., 2020, J Am Soc Nephrol 31(3) 501-516] Briefly, adult C57BL/6 mice (8 weeks old) were anesthetized with xylazine (10 mg/kg intraperitoneally) and ketamine (90-120 mg/kg intraperitoneally). Post anesthesia, a small incision in the midline of the abdomen was created and the left renal pedicle was occluded with a microaneurysm clamp, while the right kidney served as an internal control. The abdomen was temporarily partly closed by covering with clean stretch film, and the body temperature was monitored with a rectal probe and maintained at 37° C. using a heating pad. After 25 minutes, the clamps were removed, and reperfusion was visually confirmed. The abdomen was closed with a 6-0 suture and the skin with Michel miniature clips. Post-ischemia reperfusion injury (IRI), mice were randomly divided into two groups: 1. Vehicle treated (WT-Veh) and 2. Syrosingopine treated (WT-Syro). Treatment with syrosingopine or vehicle was initiated on day 2 post-IRI, a time point characterized by established kidney injury. Syrosingopine (Syro) was administered intraperitoneally (7.5 mg/kg body weight, prepared in mixture of DMSO and Tween 80) on alternate days (FIG. 1A). WT-Veh group was treated with mixture of DMSO+Tween 80 (Veh) and served as control group. On days 7 and 14 post-IRI, mice were sacrificed, and kidney damage was examined using standard methods of histopathological and molecular analysis.
Histopathological Analysis Isolated kidneys were fixed in buffered formalin for 24 h and paraffin blocks were papered using automated tissue processor (Leica Biosystems). 5 μm thick paraffin kidney sections were cut and stained with hematoxylin and eosin, and Picro Sirius red. Images were captured under microscope and were analysed using Image J (National Institutes of Health [NIH]). […] Fibrosis was assessed by the percentage of Picro-Sirius red^+ve area determined with ImageJ software (http://rsbweb.nih.gov/ij). For tubular injury scoring and quantification of Picro-Sirius red^+ve area ^310 and ^35 random visual fields of corticomedullary region, respectively were analyzed per kidney section for each sample at a magnification of ×200.
RNA and Protein Analyses RNA was isolated using Trizol from contralateral (uninjured right kidney) and IR (post unilateral clamping left kidney) kidneys and used for real-time quantitative PCR (qPCR) analysis of fibrosis and inflammatory related genes. 18S was used to normalize mRNA.
Total RNA was extracted using TRIzol reagent (n=4). Bulk RNAseq was performed by Admera Health. RNA integrity was checked with an Agilent Technologies 2100 Bioanalyzer. Poly(A) RNA sequencing libraries were prepared. Paired-ended sequencing was performed on an Illumina sequencing system. FastQC (version v0.11.8) was applied to check the quality of raw reads. Trimmomatic (version v0.38) was applied to cut adaptors and trim low-quality bases with the default setting. STAR Aligner version 2.7.1a was used to align the reads. Picard tools (version 2.20.4) was applied to mark duplicates of mapping. The StringTie version 2.0.4 was used to assemble the RNA-Seq alignments into potential transcripts. The featureCounts (version 1.6.0)/HTSeq was used to count mapped reads for genomic features such as genes, exons, promoter, gene bodies, genomic bins and chromosomal locations. The De-Seq2 (version 1.14.1) was used to do differential analysis.

HPAECs = test: Lactate measurements in HPAEC media; format: cell-based, human; details: 5 μM, 24 hours; vs vehicle (DMSO)
Description: Lactate measurements. […] Then, cell media were collected, and lactate levels were measured by a Lactate assay kit (Sigma, Catalog #MAK064) following the kit's instruction and protocol.

MCT4 = biological target: T1, MCT4 (Homo sapiens, UniProt O15427); details: dual MCT1/MCT4 inhibitor; cited from earlier work
T1 sequence (O15427 2-465 limits assumed): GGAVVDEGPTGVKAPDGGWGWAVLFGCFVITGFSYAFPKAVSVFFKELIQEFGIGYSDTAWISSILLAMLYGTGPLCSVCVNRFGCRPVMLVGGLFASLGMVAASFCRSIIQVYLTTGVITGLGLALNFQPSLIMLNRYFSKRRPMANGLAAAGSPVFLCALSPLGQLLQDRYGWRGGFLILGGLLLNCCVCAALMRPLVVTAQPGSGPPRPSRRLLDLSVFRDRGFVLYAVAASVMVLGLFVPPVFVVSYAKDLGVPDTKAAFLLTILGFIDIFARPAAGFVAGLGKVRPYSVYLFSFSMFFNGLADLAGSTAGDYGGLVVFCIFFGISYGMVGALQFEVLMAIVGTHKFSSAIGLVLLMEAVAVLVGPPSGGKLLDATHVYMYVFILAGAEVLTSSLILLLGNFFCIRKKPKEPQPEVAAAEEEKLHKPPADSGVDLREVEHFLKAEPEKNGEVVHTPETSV
T1 sequence (P35613 140-385 partner limits assumed): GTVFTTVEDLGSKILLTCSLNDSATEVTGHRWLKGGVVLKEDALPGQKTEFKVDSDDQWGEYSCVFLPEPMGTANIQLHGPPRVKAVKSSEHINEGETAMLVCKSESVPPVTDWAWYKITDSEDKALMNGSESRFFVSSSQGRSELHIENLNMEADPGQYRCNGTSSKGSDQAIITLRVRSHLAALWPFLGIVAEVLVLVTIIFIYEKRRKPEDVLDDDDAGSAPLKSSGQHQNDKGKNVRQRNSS

[4] = tested on: PHD^TiEC mice, post-ischemic kidney; test: Unilateral renal IRI in PHD^TiEC mice, post-ischemic treatment; format: in vivo, mouse; details: day 14 post uIRI
From the text: As the primary metabolic response of the post-ischemic endothelium to HIF stabilization in the context of PHD inactivation was increased glycolysis, we next focused on this aspect. While increased lactate generation and efflux via the transporter MCT4 represent the final steps of hypoxia-induced glycolysis, lactate export was recently shown to be among the four key steps controlling glycolytic flux. […] Indeed, immunofluorescence staining confirmed high expression of MCT4 protein in the post-ischemic kidney endothelium of PHD^TiEC (FIG. 10A and FIG. 19). We next sought to investigate whether increased endothelial MCT4 causally contributes to the maladaptive post-ischemic kidney repair observed in the PHD^TiEC mice. To this end, we used syrosingopine, a dual inhibitor of monocarboxylate transporters MCT1 and MCT4 (60-fold higher potency on MCT4), which leads to end-product inhibition of glycolysis. As depicted in FIG. 10B, PHD^TiEC mice were treated with syrosingopine or vehicle starting on day 2 after uIRI and then every other day until day 14 post uIRI. […] MCT4 inhibition diminishes endothelial derived pro-inflammatory responses induced by hypoxia-reoxygenation and IL-1
Male mice 8-10 weeks of age underwent renal IRI surgery as previously described [Torosyan R, et al. Hypoxic preconditioning protects against ischemic kidney injury through the IDO1/kynurenine pathway. Cell Rep. 2021;36(7):109547]. Anesthesia was induced by IP injection of xylazine (10 mg/kg IP) and ketamine (90-120 mg/kg IP). After making a small midline abdominal incision, the left renal pedicle was occluded by applying a microaneurysm clamp for 25 minutes, while the right kidney was kept intact as an internal control in the unilateral IRI. For bilateral renal IRI, clamps were applied in both renal pedicles for 23 minutes. After the specified time, the clamps were removed, and reperfusion was visually confirmed. The incision site was closed with a 6-0 suture followed by the closure of the skin wound with Michel miniature clips. Throughout the surgical procedure, body temperature was monitored by a rectal probe and controlled with a heating pad at 37° C.
For in vivo MCT4 inhibition studies, mice were treated with syrosingopine (7.5 mg/kg) or vehicle starting on day 2 post IRI every other day until dissection on day 14 post IRI.
as §2
For the histological examination, kidneys were fixed in 10% formalin buffer and paraffin blocks were prepared. To assess tubular damage and interstitial fibrosis, 5-μm transverse plane kidney sections were separately stained with hematoxylin and eosin (H&E) and Picro-Sirius red. […] Fibrosis was assessed by the percentage of Picro-Sirius red^+ve area determined with ImageJ software (http://rsbweb.nih.gov/ij). For tubular injury scoring and quantification of Picro-Sirius red^+ve area ^310 and ^35 random visual fields of corticomedullary region, respectively were analyzed per kidney section for each sample at a magnification of ×200.

[5] = day 7 and day 14 post IRI, 7.5 mg/kg IP, vs vehicle, 7.5 mg/kg
[6] = 7.5 mg/kg every other day from day 2, vs vehicle

## CCOC(=O)Oc1c(OC)cc(C(=O)O[C@@H]2C[C@@H]3CN4CCc5c([nH]c6cc(OC)ccc56)[C@H]4C[C@@H]3[C@H](C(=O)OC)[C@H]2OC)cc1OC [syrosingopine]
[1]
  reduction of adhesion of monocytes (THP-1 cells) to HPAECs: ~48%
[2]
  ICAM1 mRNA expression: significantly suppressed
  VCAM1 mRNA expression: significantly suppressed
[3]; [5]
  Icam1 mRNA level in IR kidney (qPCR): substantially lower levels; also recorded: significant reduction
  Loxl2 mRNA level in IR kidney (qPCR): substantially lower levels; also recorded: significant reduction
  Tgfβ1 mRNA level in IR kidney (qPCR): substantially lower levels; also recorded: significant reduction
  Vcam1 mRNA level in IR kidney (qPCR): substantially lower levels; also recorded: significant reduction
[3]; day 7 and day 14 post IRI, vs vehicle-treated controls
  Picro-Sirius red stained area (fibrosis), image analysis: significantly less staining
[3]; day 7 and day 14 post-IRI kidneys, 7.5 mg/kg IP, vs vehicle, 7.5 mg/kg
  tubular injury scoring: less injury; also recorded: reduced tubular damage
[3]; day 7 and day 14 post-IRI kidneys, vs vehicle
  genes associated with pro-inflammatory pathways (bulk RNA-seq): suppression
[3]; day 7 post IRI, vs vehicle
  reduction in fibrosis assessed by Picro Sirius red staining: 25%
[3]; day 14 post IRI, vs vehicle
  reduction in fibrosis assessed by Picro Sirius red staining: 62%
[3]; day 14 post IRI, vs vehicle, 7.5 mg/kg
  perfusion of IR kidney (visual): improved perfusion
[3]; day 14 post IRI, vs vehicle, listed as Syrosingopine, 7.5 mg/kg
  perfusion of IR kidney (visual): visually better perfused
[3]; day 14 post-IRI kidneys, vs vehicle
  genes of metabolic pathways, oxidative phosphorylation and fatty acid metabolism (bulk RNA-seq): significantly up-regulated; also recorded: upregulated
HPAECs
  extracellular lactate levels: reduction
MCT4
  higher potency towards MCT4 than MCT1: 60 fold
[4]; [6]
  reduction in collagen accumulation (Picro-Sirius red): ~51%
  reduction in tubular injury scoring: ~37%
[4]; vs vehicle treated group
  Acta2 mRNA level: significantly downregulated
  Loxl2 mRNA level: significantly downregulated
  Tgfb1 mRNA level: significantly downregulated

— US20240245661A1, “MCT4-TARGETED THERAPEUTICS PREVENTING AKI TO CKD TRANSITION” (Northwestern University, priority 2023, published 2024)
